Source: US20240041976A1, “COMPOSITION AND USE” (priority 2020, published 2024)
Read-outs that look alike come from different tables or passages of the source. No end group written: not given here.

Key:
[1] = tested on: S. aureus ATTC 10832 biofilm; assay: Biofilm-oriented antimicrobial test (BOAT), MIC50 in biofilms; format: cell-based, Staphylococcus aureus; settings: for MIC50: individual component
Protocol: (§1) Synergistic interactions between antimicrobials were determined using the fractional inhibition concentration (FIC). The FIC values were calculated as follows: the sum of the FIC =FICa+FICb+FICc, where the FICa means MIC of A in combination/MIC of A alone, FICb means MIC of B in combination/MIC of B, and FICc means MIC of C in combination/MIC of C alone. Effects were considered as synergistic if FIC was ≤0.5 for two components mixture and ≤0.75 for three components mixture.
(§2) Staphylococcus aureus strains were inoculated in 5 ml of TSB and incubated O/N at 37° C. Ten μl of the O/N cultures were then inoculated in 90 μl of TSB supplemented with 1% glucose and 1% NaCl (TSB-GN) in the appropriate wells of a 96-well microtiter plate (Sarstedt) to a final volume of 100 μl. The plates were then incubated at 37° C. for 24 h. After the incubation, the presence of the biofilm at the bottom of the wells was assessed visually.
(§3) The BOAT assay was performed as described previously (Gronseth et al., 2017, Int. J. Pediatr. Otorhinolaryngol., Vol. 103, p 58-64) with some modifications. The serial dilutions of the antimicrobials were prepared in challenge plates as follows: 175 μl of TSB were transferred in each row of a 96-well microtiter plate, except for the first row, according to the number of microbial strains to treat. In the first row of the plate, the antimicrobials were diluted to their respective working concentrations in a final volume of 350 μl of TSB. From the first row, 175 μl of the antimicrobial dilutions were then transferred to the second row of the plate and further serially diluted to the bottom of the plate. The same procedure was followed to prepare the controls, except that instead of the antimicrobials an equivalent volume of the respective vehicles were used. The biofilms were allowed to form for 24 h and then washed twice with 100 μl of sterile saline buffer and a total of 150 μl of the antimicrobial and control dilutions were transferred from the challenge plate to the corresponding wells of the biofilm plate. The challenged biofilms were then incubated for an additional 24 h at 37° C. After the challenge period, the antimicrobial dilutions were removed and the biofilms were carefully washed three times with 150 μl of sterile saline buffer. A total of 100 μl of TSB supplemented with 0.025% of triphenyl-tetrazolium chloride (TTC, Sigma) were then added to each well of the plate and further incubated at 37° C. for 5h. The results were then assessed by monitoring the development (or not) of red formazan (red colour), denoting the retention of metabolic activity by bacterial cells (Moussa et al., 2013, J. Mycol., Vol. 2013; Perez et al., 2010, Lett. Appl. Microbiol., Vol. 51, p 331-337). The medium was then removed and 200 μl of an ethanol:acetone (70:30) mixture was added to the wells and incubated O/N in order to extract the red formazan. The amount of extracted dye, reflecting the degree of bacterial cell metabolic activity, was then quantified by spectrophotometric readings at 492 nm.

[2] = tested on: S. aureus ATTC 29213 biofilm; assay: as above; format: cell-based, Staphylococcus aureus; settings: for MIC50: individual component
Protocol: as §1, §2, §3

[3] = tested on: S. aureus ATTC 33591 biofilm; assay: as above; format: cell-based, Staphylococcus aureus; settings: for MIC50 of the component in combination / MIC50: ATTC 33591, biofilm; for MIC50: individual component
Protocol: as §1, §2, §3

[4] = tested on: S. aureus Newman biofilm; assay: as above; format: cell-based, Staphylococcus aureus; settings: for MIC50: individual component
Protocol: as §1, §2, §3

[5] = tested on: S. aureus USA 300 biofilm; assay: as above; format: cell-based, Staphylococcus aureus
Protocol: as §1, §2, §3

[6] = tested on: S.a. 3255 biofilm; assay: as above; format: cell-based, Staphylococcus aureus; settings: for MIC50: individual component
Protocol: as §1, §2, §3

[7] = tested on: S. haemolyticus 4070; assay: microbe, parasite or virus in culture
[8] = Staphylococcus aureus, ATTC10832BIOFILM, read-out: MIC50
[9] = garvicin KS + micrococcin P1 + penicillin G
[10] = Staphylococcus aureus, ATTC29213BIOFILM, read-out: MIC50
[11] = Staphylococcus aureus, ATTC33591BIOFILM, read-out: MIC50
[12] = Staphylococcus aureus, read-out: MIC50
[13] = Staphylococcus aureus, USA300, individual component, read-out: MIC50
[14] = 4070, 24 h, K1-EJ + GarKS + MP1
[15] = 4070, 48 h, K1-EJ + GarKS + MP1

CC1(C)S[C@@H]2[C@H](NC(=O)Cc3ccccc3)C(=O)N2[C@H]1C(=O)O [Penicillin G]
MIC50 [1, 8]: 10000 µg/mL
MIC50 of the component in combination [1, 9]: 310 µg/mL
MIC50 of the component in combination ([1]; garvicin KS + penicillin G): 630 µg/mL
MIC50 [2, 10]: 10000 µg/mL
MIC50 of the component in combination [2, 9]: 630 µg/mL
MIC50 of the component in combination ([2]; garvicin KS + penicillin G): 2500 µg/mL
MIC50 of the component in combination [3, 9]: 10000 µg/mL
MIC50 of the component in combination ([3]; garvicin KS + penicillin G): >10000 µg/mL
MIC50 [3, 11]: > 10000 µg/mL
MIC50 [4, 12]: 10000 µg/mL
MIC50 of the component in combination [4, 9]: 2500 µg/mL
MIC50 of the component in combination ([4]; garvicin KS + penicillin G): 1300 µg/mL
MIC50 [5, 13]: > 10000 µg/mL
MIC50 of the component in combination [5, 9]: 10000 µg/mL
MIC50 of the component in combination ([5]; garvicin KS + penicillin G): >10000 µg/mL
MIC50 [6, 12]: 10000 µg/mL
MIC50 of the component in combination [6, 9]: 0.63 mg/mL
MIC50 of the component in combination ([6]; garvicin KS + penicillin G): 0.63 mg/mL

MKFKFNPTGTIVKKLTQYEINWYKQQYGRYPWERPVA [Hybrid K1-EJ]
MIC ([7]; 4070, 5 h): 0.78 µg/mL
MIC ([7]; 4070, 24 h): >100 µg/mL
MIC ([7]; 4070, 48 h): >100 µg/mL
MIC of the component in combination ([7]; 4070, 5 h, K1-EJ + GarKS): 0.72 µg/mL
MIC of the component in combination ([7]; 4070, 5 h, K1-EJ + GarKS + MP1): 0.32 µg/mL
MIC of the component in combination ([7]; 4070, 5 h, K1-EJ + MP1): 0.2 µg/mL
MIC of the component in combination ([7]; 4070, 24 h, K1-EJ + GarKS): 3.3 µg/mL
MIC of the component in combination [7, 14]: 2.8 µg/mL
MIC of the component in combination ([7]; 4070, 24 h, K1-EJ + MP1): 2.8 µg/mL
MIC of the component in combination ([7]; 4070, 48 h, K1-EJ + GarKS): 6.3 µg/mL
MIC of the component in combination [7, 15]: 5.8 µg/mL
MIC of the component in combination ([7]; 4070, 48 h, K1-EJ + MP1): 6 µg/mL

C/C=C(\NC(=O)c1csc(-c2csc(-c3ccc4c(n3)-c3csc(n3)[C@H]([C@@H](C)O)NC(=O)c3csc(n3)[C@H](C(C)C)NC(=O)c3csc(n3)/C(=C/C)NC(=O)[C@H]([C@@H](C)O)NC(=O)c3csc-4n3)n2)n1)C(=O)NC[C@@H](C)O [MP1, micrococcin P1]
MIC50 [1, 8]: > 100 µg/mL
MIC50 of the component in combination ([1]; garvicin KS + micrococcin P1): 25 µg/mL
MIC50 of the component in combination [1, 9]: 3.1 µg/mL
MIC50 [2, 10]: > 100 µg/mL
MIC50 of the component in combination ([2]; garvicin KS + micrococcin P1): 25 µg/mL
MIC50 of the component in combination [2, 9]: 6.3 µg/mL
MIC50 of the component in combination ([3]; garvicin KS + micrococcin P1): >100 µg/mL
MIC50 of the component in combination [3, 9]: 100 µg/mL
MIC50 [3, 11]: > 100 µg/mL
MIC50 [4, 12]: > 100 µg/mL
MIC50 of the component in combination ([4]; garvicin KS + micrococcin P1): 25 µg/mL
MIC50 of the component in combination [4, 9]: 25 µg/mL
MIC50 [5, 13]: > 100 µg/mL
MIC50 of the component in combination ([5]; garvicin KS + micrococcin P1): 100 µg/mL
MIC50 of the component in combination [5, 9]: 100 µg/mL
MIC50 [6, 12]: > 100 µg/mL
MIC50 of the component in combination ([6]; garvicin KS + micrococcin P1): 2.5 × 10^−2. mg/ml
MIC50 of the component in combination [6, 9]: 0.0063 mg/mL
MIC of the component in combination ([7]; 4070, 5 h, GarKS + MP1): 0.02 µg/mL
MIC of the component in combination ([7]; 4070, 5 h, K1-EJ + GarKS + MP1): 0.032 µg/mL
MIC of the component in combination ([7]; 4070, 5 h, K1-EJ + MP1): 0.02 µg/mL
MIC of the component in combination ([7]; 4070, 24 h, GarKS + MP1): 0.33 µg/mL
MIC of the component in combination [7, 14]: 0.28 µg/mL
MIC of the component in combination ([7]; 4070, 24 h, K1-EJ + MP1): 0.28 µg/mL
MIC of the component in combination ([7]; 4070, 48 h, GarKS + MP1): 0.63 µg/mL
MIC of the component in combination [7, 15]: 0.58 µg/mL
MIC of the component in combination ([7]; 4070, 48 h, K1-EJ + MP1): 0.6 µg/mL
MIC ([7]; Staphylococcus haemolyticus, 4070, 5 h): 0.02 µg/mL
MIC ([7]; Staphylococcus haemolyticus, 4070, 24 h): 0.33 µg/mL
MIC ([7]; Staphylococcus haemolyticus, 4070, 48 h): 0.13 µg/mL

B1: Garvicin KS: three-peptide leaderless bacteriocin (GarA, GarB, GarC; SEQ ID NO:6-8), peptides synthesized (peptide, listed as Lactococcus garvieae)
chain 1: MGAIIKAGAKIVGKGVLGGGASWLGWNVGEKIWK
chain 2: MGAIIKAGAKIIGKGLLGGAAGGATYGGLKKIFG
chain 3: MGAIIKAGAKIVGKGALTGGGVWLAEKLFGGK
MIC50 of the component in combination ([1]; garvicin KS + micrococcin P1): 1250 µg/mL
MIC50 of the component in combination [1, 9]: 160 µg/mL
MIC50 of the component in combination ([1]; garvicin KS + penicillin G): 310 µg/mL
MIC50 [1]: 2500 µg/mL
MIC50 of the component in combination ([2]; garvicin KS + micrococcin P1): 1250 µg/mL
MIC50 of the component in combination [2, 9]: 310 µg/mL
MIC50 of the component in combination ([2]; garvicin KS + penicillin G): 1250 µg/mL
MIC50 [2]: 1250 µg/mL
MIC increase compared to the planktonic state ([3]; ATCC 33591 biofilm): over 100 fold
MIC50 of the component in combination ([3]; garvicin KS + micrococcin P1): >5000 µg/mL
MIC50 of the component in combination [3, 9]: 5000 µg/mL
MIC50 of the component in combination ([3]; garvicin KS + penicillin G): >5000 µg/mL
MIC50 [3]: >5000 µg/mL
MIC50 of the component in combination ([4]; garvicin KS + micrococcin P1): 1250 µg/mL
MIC50 of the component in combination [4, 9]: 1250 µg/mL
MIC50 of the component in combination ([4]; garvicin KS + penicillin G): 630 µg/mL
MIC50 [4]: 1250 µg/mL
MIC50 of the component in combination ([5]; garvicin KS + micrococcin P1): 5000 µg/mL
MIC50 of the component in combination [5, 9]: 5000 µg/mL
MIC50 of the component in combination ([5]; garvicin KS + penicillin G): >5000 µg/mL
MIC50 ([5]; individual component): 2500 µg/mL
MIC50 of the component in combination ([6]; garvicin KS + micrococcin P1): 3.1 × 10^−1. mg/ml
MIC50 of the component in combination [6, 9]: 0.31 mg/mL
MIC50 of the component in combination ([6]; garvicin KS + penicillin G): 0.31 mg/mL
MIC50 [6]: 1250 µg/mL
MIC of the component in combination ([7]; 4070, 5 h, GarKS + MP1): 0.2 µg/mL
MIC of the component in combination ([7]; 4070, 5 h, K1-EJ + GarKS): 0.72 µg/mL
MIC of the component in combination ([7]; 4070, 5 h, K1-EJ + GarKS + MP1): 0.32 µg/mL
MIC ([7]; 4070, 5 h, individual component): 12 µg/mL
MIC of the component in combination ([7]; 4070, 24 h, GarKS + MP1): 3.3 µg/mL
MIC of the component in combination ([7]; 4070, 24 h, K1-EJ + GarKS): 3.3 µg/mL
MIC of the component in combination [7, 14]: 2.8 µg/mL
MIC ([7]; 4070, 24 h, individual component): 48 µg/mL
MIC of the component in combination ([7]; 4070, 48 h, GarKS + MP1): 6.3 µg/mL
MIC of the component in combination ([7]; 4070, 48 h, K1-EJ + GarKS): 6.3 µg/mL
MIC of the component in combination [7, 15]: 5.8 µg/mL
MIC ([7]; 4070, 48 h, individual component): 51 µg/mL
